Data from ChEMBL document CHEMBL4417631, “Oral peptide inhibitors of interleukin-23 receptor and their use to treat inflammatory bowel diseases” (2017).
Where a SMILES comes first, the peptide text is derived from it. [ ]: non-standard residue; d: D form. hLeu = CC(C)CC[C@H](N)C(=O)O

biological target: T1, Interleukin-23 receptor (Homo sapiens, UniProt Q5VWK5); experiment: Inhibition of interleukin-23 binding to human interleukin-23 receptor incubated for 2 hrs by competitive binding ELISA
T1 sequence (Q5VWK5 whole entry): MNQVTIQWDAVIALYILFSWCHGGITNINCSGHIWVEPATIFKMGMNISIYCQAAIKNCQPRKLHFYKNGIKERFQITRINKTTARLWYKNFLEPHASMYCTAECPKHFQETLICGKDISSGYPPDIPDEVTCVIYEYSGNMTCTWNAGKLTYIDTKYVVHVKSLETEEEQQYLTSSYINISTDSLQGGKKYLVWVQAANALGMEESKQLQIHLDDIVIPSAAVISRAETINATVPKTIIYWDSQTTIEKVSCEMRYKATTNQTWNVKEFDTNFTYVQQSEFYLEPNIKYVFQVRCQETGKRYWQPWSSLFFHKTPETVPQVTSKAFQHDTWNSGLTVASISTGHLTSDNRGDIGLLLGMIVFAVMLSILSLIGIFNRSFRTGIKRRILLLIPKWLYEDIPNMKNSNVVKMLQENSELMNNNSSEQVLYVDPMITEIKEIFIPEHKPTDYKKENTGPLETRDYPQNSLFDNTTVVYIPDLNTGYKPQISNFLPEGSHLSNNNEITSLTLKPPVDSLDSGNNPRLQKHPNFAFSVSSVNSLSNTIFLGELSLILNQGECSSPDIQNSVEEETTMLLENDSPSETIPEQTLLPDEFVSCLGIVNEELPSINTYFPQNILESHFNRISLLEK

SMILES	IC50 [nM]
CC(=O)N[C@H](C(=O)N[C@@H](CCC(N)=O)C(=O)N[C@@H](Cc1ccccc1)C(=O)N[C@@H](CC(=O)O)C(=O)N[C@@H](CS)C(=O)N[C@@H](CCCNC(=N)N)C(=O)N[C@H](C(=O)N[C@@H](Cc1c[nH]c2ccccc12)C(=O)N[C@@H](CCC(=O)O)C(=O)N[C@@H](CS)C(=O)N[C@@H](Cc1ccc(O)cc1)C(=O)N[C@@H](Cc1c[nH]c2ccccc12)C(=O)N[C@@H](Cc1cnc[nH]1)C(=O)N[C@H](C(=O)N[C@@H](Cc1ccccc1)C(=O)NCC(N)=O)[C@@H](C)O)[C@@H](C)O)[C@@H](C)O	500 to 1000
CC(=O)N[C@H](C(=O)N[C@@H](CCC(N)=O)C(=O)N[C@H](C(=O)N[C@@H](Cc1c[nH]c2ccccc12)C(=O)N[C@@H](CCC(N)=O)C(=O)N[C@H](C(=O)N[C@@H](Cc1ccc(C#N)cc1)C(=O)N[C@@H](Cc1ccc2ccccc2c1)C(=O)N[C@@](C)(CCCN)C(=O)N[C@@H](CCC(=O)O)C(=O)N[C@@H](CC(N)=O)C(=O)NCC(N)=O)C(C)(C)S)[C@@H](C)O)C(C)(C)S	100 to 1000
COc1ccc([C@@H]2NC(=O)[C@H]([C@@H](C)O)NC(=O)[C@H](CCC(N)=O)NC(=O)[C@@H](NC(C)=O)CCSC[C@@H](C(=O)N[C@@H](Cc3ccc(OCCN)cc3)C(=O)N[C@@H](Cc3ccc4ccccc4c3)C(=O)N[C@@](C)(CCCCN)C(=O)N[C@@H](CCC(=O)O)C(=O)N[C@@H](CC(N)=O)C(=O)NCC(N)=O)NC(=O)[C@H](CCC(N)=O)NC2=O)cc1	> 3000
CCCCCCCC(=O)N[C@H](C(=O)N[C@@H](CCC(N)=O)C(=O)N[C@H](C(=O)N[C@@H](Cc1c[nH]c2ccccc12)C(=O)N[C@@H](CCC(N)=O)C(=O)N[C@H](C(=O)N[C@@H](Cc1ccc(OC)cc1)C(=O)N[C@@H](Cc1ccc2ccccc2c1)C(=O)N[C@@](C)(CCCCN)C(=O)N[C@@H](CCCCNC(C)=O)C(=O)N[C@@H](CC(N)=O)C(=O)NCC(N)=O)C(C)(C)S)[C@@H](C)O)C(C)(C)S	100 to 1000
CC(=O)N[C@@H](CS)C(=O)N[C@@H](CCC(N)=O)C(=O)N[C@H](C(=O)N[C@@H](Cc1c[nH]c2ccccc12)C(=O)N[C@@H](CCC(N)=O)C(=O)N[C@@H](CS)C(=O)N[C@@H](Cc1ccc(O)cc1)C(=O)N[C@@H](Cc1c[nH]c2ccccc12)C(=O)N1CCC[C@@H]1C(=O)N[C@@H](CCC(=O)O)C(=O)N[C@@H](CC(N)=O)C(=O)NCC(N)=O)[C@@H](C)O	> 30000
C[C@H](NC(=O)[C@@H](N)CS)C(=O)N[C@@H](CC(=O)O)C(=O)N[C@@H](Cc1c[nH]c2ccccc12)C(=O)N[C@@H](CS)C(=O)N[C@@H](CS)C(=O)N[C@@H](Cc1ccc(O)cc1)C(=O)N[C@@H](Cc1c[nH]c2ccccc12)C(=O)N[C@@H](CS)C(=O)N[C@H](C(=O)N[C@@H](Cc1ccccc1)C(=O)NCC(N)=O)[C@@H](C)O (H-CADWCCYWCTFG-NH2)	> 1000
CC(=O)NC1C/C=C\CCCC(C(=O)N[C@@H](Cc2ccc(O)cc2)C(=O)N[C@@H](Cc2c[nH]c3ccccc23)C(=O)N[C@@H](CCCNC(=N)N)C(=O)N[C@@H](CCCCN)C(=O)N[C@@H](Cc2ccccc2)C(=O)NCC(=O)NCCOCC(=O)N[C@H](CCCCN)C(N)=O)NC(=O)[C@H](CCC(N)=O)NC(=O)[C@H](Cc2c[nH]c3ccccc23)NC(=O)[C@H]([C@@H](C)O)NC(=O)[C@H](CCCNC(=N)N)NC1=O (stereo partly specified)	1000 to 10000
CC(=O)N[C@@H](CS)C(=O)N[C@@H](CCC(N)=O)C(=O)N[C@H](C(=O)N[C@@H](CCC(=O)O)C(=O)N[C@@H](CCC(N)=O)C(=O)N[C@@H](CS)C(=O)N[C@@H](Cc1ccc(O)cc1)C(=O)N[C@@H](Cc1c[nH]c2ccccc12)C(=O)N[C@@H](CCC(C)C)C(=O)N[C@@H](CCC(=O)O)C(=O)N[C@@H](CC(N)=O)C(=O)NCC(N)=O)[C@@H](C)O (Ac-CQTEQCYW[hLeu]ENG-NH2)	> 10000
CC(=O)N[C@@H](CS)C(=O)N[C@@H](CCC(N)=O)C(=O)N1CCC[C@H]1C(=O)N[C@@H](Cc1c[nH]c2ccccc12)C(=O)N[C@@H](CCC(N)=O)C(=O)N[C@@H](CS)C(=O)N[C@@H](Cc1ccc(O)cc1)C(=O)N[C@@H](Cc1c[nH]c2ccccc12)C(=O)N[C@@H](CCC(C)C)C(=O)N[C@@H](CCC(=O)O)C(=O)N[C@@H](CC(N)=O)C(=O)NCC(N)=O (Ac-CQPWQCYW[hLeu]ENG-NH2)	> 10000
CC(=O)N[C@@H](CS)C(=O)N[C@@H](CCC(N)=O)C(=O)N[C@H](C(=O)N[C@@H](Cc1c[nH]c2ccccc12)C(=O)N[C@@H](CCC(N)=O)C(=O)N[C@@H](CS)C(=O)N[C@@H](Cc1ccc(O)cc1)C(=O)N[C@@H](Cc1c[nH]c2ccccc12)C(=O)N1CCC[C@H]1C(=O)N[C@@H](CCC(=O)O)C(=O)N[C@@H](CC(N)=O)C(=O)NCC(N)=O)[C@@H](C)O	> 30000
CC(=O)N[C@@H](CS)C(=O)N[C@@H](C)C(=O)N[C@@H](CC(=O)O)C(=O)N[C@@H](Cc1c[nH]c2ccccc12)C(=O)N[C@H](C(=O)N[C@H](C(=O)N[C@@H](Cc1ccc(O)cc1)C(=O)N[C@@H](Cc1c[nH]c2ccccc12)C(=O)N[C@@H](Cc1cnc[nH]1)C(=O)N[C@H](C(=O)N[C@@H](Cc1ccccc1)C(=O)NCC(N)=O)[C@@H](C)O)C(C)(C)S)C(C)C	1000 to 10000
CC(=O)N[C@@H](CS)C(=O)N[C@@H](C)C(=O)N[C@H](C(=O)N[C@@H](Cc1c[nH]c2ccccc12)C(=O)N[C@H](C(=O)N[C@@H](CS)C(=O)N[C@@H](Cc1ccc(O)cc1)C(=O)N[C@@H](Cc1c[nH]c2ccccc12)C(=O)N[C@@H](Cc1cnc[nH]1)C(=O)N[C@H](C(=O)N[C@@H](Cc1ccccc1)C(=O)NCC(N)=O)[C@@H](C)O)C(C)C)[C@@H](C)O	> 1000
CC(=O)N[C@@H](CS)C(=O)N[C@@H](C)C(=O)N[C@@H](CC(=O)O)C(=O)N[C@@H](Cc1c[nH]c2ccccc12)C(=O)N[C@H](C(=O)N[C@@H](CS)C(=O)N[C@@H](Cc1ccc(O)cc1)C(=O)N[C@@H](Cc1c[nH]c2ccccc12)C(N)=O)C(C)C	> 30000

More lines, now with the values ahead:

IC50 [nM]	SMILES
< 500	C[C@@H](O)[C@H](NC(=O)[C@H](CCCNC(=N)N)NC(=O)[C@@H](N)CS)C(=O)N[C@@H](Cc1c[nH]c2ccccc12)C(=O)N[C@@H](CCC(N)=O)C(=O)N[C@@H](CS)C(=O)N[C@@H](Cc1ccc(O)cc1)C(=O)N[C@@H](Cc1c[nH]c2ccccc12)C(=O)N[C@@H](CCCNC(=N)N)C(=O)N[C@@H](CCCCN)C(=O)N[C@@H](Cc1ccccc1)C(=O)NCC(N)=O (H-CRTWQCYWRKFG-NH2)
< 500	CC(=O)N[C@@H](CS)C(=O)N[C@@H](CCCNC(=N)N)C(=O)N[C@H](C(=O)N[C@@H](Cc1c[nH]c2ccccc12)C(=O)N[C@@H](CCC(=O)O)C(=O)N[C@@H](CS)C(=O)N[C@@H](Cc1ccc(O)cc1)C(=O)N[C@@H](Cc1c[nH]c2ccccc12)C(=O)N[C@@H](Cc1cnc[nH]1)C(=O)N[C@@H](CCC(=O)O)C(=O)N[C@@H](Cc1ccc(O)cc1)C(=O)NCC(N)=O)[C@@H](C)O (Ac-CRTWECYWHEYG-NH2)
< 500	CC(=O)N[C@@H](CS)C(=O)N[C@@H](C)C(=O)N[C@@H](CC(=O)O)C(=O)N[C@@H](Cc1c[nH]c2ccccc12)C(=O)N[C@H](C(=O)N[C@@H](CS)C(=O)N[C@@H](Cc1ccc(O)cc1)C(=O)N[C@@H](Cc1c[nH]c2ccccc12)C(=O)N[C@@H](Cc1cnc[nH]1)C(=O)N[C@H](C(=O)N[C@@H](Cc1ccccc1)C(=O)NCC(=O)N[C@@H](C)C(=O)N[C@@H](C)C(=O)N[C@H](CCCCN)C(=O)O)[C@@H](C)O)C(C)C
> 1000	CC(=O)N[C@@H](CS)C(=O)N[C@@H](CCC(N)=O)C(=O)N[C@H](C(=O)N[C@@H](Cc1c[nH]c2ccccc12)C(=O)N[C@@H](CCC(N)=O)C(=O)N[C@@H](CS)C(=O)N[C@@H](Cc1ccc(O)cc1)C(=O)N[C@@H](Cc1c[nH]c2ccccc12)C(=O)N[C@H](CCCNC(=N)N)C(=O)N[C@@H](CCC(=O)O)C(=O)N[C@@H](CC(N)=O)C(=O)NCC(=O)NCCOCC(=O)N[C@H](CCCCN)C(N)=O)[C@@H](C)O
< 500	CC(=O)N[C@@H](CS)C(=O)N[C@@H](C)C(=O)N[C@@H](CC(=O)O)C(=O)N[C@@H](Cc1c[nH]c2ccccc12)C(=O)N[C@H](C(=O)N[C@@H](CS)C(=O)N[C@@H](Cc1ccc(O)cc1)C(=O)N[C@@H](Cc1c[nH]c2ccccc12)C(=O)N[C@@H](Cc1cnc[nH]1)C(=O)N[C@H](C(=O)N[C@@H](Cc1ccc(O)cc1)C(=O)NCC(N)=O)[C@@H](C)O)C(C)C
< 500	CC(=O)N[C@@H](CS)C(=O)N[C@@H](CCCNC(=N)N)C(=O)N[C@H](C(=O)N[C@@H](Cc1c[nH]c2ccccc12)C(=O)N[C@@H](CCC(N)=O)C(=O)N[C@@H](CS)C(=O)N[C@@H](Cc1ccc(O)cc1)C(=O)N[C@@H](Cc1c[nH]c2ccccc12)C(=O)N[C@@H](Cc1cnc[nH]1)C(=O)N[C@@H](CCC(=O)O)C(=O)N[C@@H](Cc1ccc(O)cc1)C(=O)NCC(N)=O)[C@@H](C)O (Ac-CRTWQCYWHEYG-NH2)
6000	CC(=O)N[C@@H](CS)C(=O)N[C@@H](C)C(=O)N[C@@H](CC(=O)O)C(=O)N[C@@H](Cc1c[nH]c2ccccc12)C(=O)N[C@H](C(=O)N[C@@H](CS)C(=O)N[C@@H](Cc1ccc(O)cc1)C(=O)N[C@@H](Cc1cc(F)cc(F)c1)C(=O)N[C@@H](CCCN)C(=O)N[C@@H](CN)C(=O)N[C@@H](Cc1ccccc1)C(=O)NCC(=O)NCCOCC(=O)N[C@H](CCCCN)C(N)=O)C(C)C
> 1000	CC(=O)N[C@@H](CS)C(=O)N[C@@H](C)C(=O)N[C@@H](CC(=O)O)C(=O)N[C@@H](Cc1c[nH]c2ccccc12)C(=O)N[C@H](C(=O)N[C@@H](CS)C(=O)N[C@@H](Cc1ccc(O)cc1)C(=O)N[C@@H](Cc1ccc(C(F)(F)F)cc1)C(=O)N[C@@H](CCCN)C(=O)N[C@@H](CN)C(=O)N[C@@H](Cc1ccccc1)C(=O)NCC(=O)NCCOCC(=O)N[C@H](CCCCN)C(N)=O)C(C)C
